Key:
Assay type in all cases: cell-based
[1] = system: Penicillium expansum EPS26; experiment: MIC, antifungal growth inhibition in microtiter plates (PDB); details: Pe, 22°C, seven days, OD 600 nm, lowest concentration with no growth, given as interval of tested concentrations, three replicates, experiment repeated twice
Description: (§1) The following plant pathogenic fungal strains were used: Penicillium expansum EPS26 (Institut de Tecnologia Agroalimentària, Universitat de Girona, Spain) and Fusarium oxysporum f. sp. lycopersici FOL 3 race 2 (ATCC 201829, American Type Culture Collection,Virginia, EEUU). Strains were cultured on potato dextrose agar (PDA) plates (Difco). Conidia from P. expansum and microconidia from F. oxysporum were obtained from 5–7 day-old agar Potato Dextrose (PDA) cultures after growth at 25°C. Inoculum was prepared by scraping spore material from culture surfaces with a cotton swab and resuspending it in distilled water containing 0.5‰ of tween 80. The suspensions were filtered through Miracloth (Merk, Millipore) and the concentration of conidia was determined using a hemacytometer and adjusted to 10^4 conidia mL^-1 for F. oxysporum and to 10^3 conidia mL^-1 for P. expansum.
(§2) Lyophilized peptides were solubilized in sterile Milli-Q water to a final concentration of 1 mM and filter sterilized through a 0.22-μm pore filter. […] For antibacterial activity 20 μL of each dilution were mixed in a microtiter plate well with 20 μL of the corresponding suspension of the bacterial indicator, 160 μL of Trypticase Soy Broth (TSB) (BioMèrieux, France) to a total volume of 200 μL. For antifungal activity 20 μL of each stock solution were mixed in a microtiter plate well with 80 μL of the corresponding suspension of the fungal pathogen and 100 μL of double concentrated Potato Dextrose Broth (PDB) to a total volume of 200 μL containing 0.003% w/v of chloramphenicol to prevent bacterial contamination.
(§3) Three replicates for each combination of strain, compound and concentration were used. Microbial growth was determined by optical density measurement at 600 nm (Bioscreen C, Labsystem, Helsinki, Finland). For antibacterial activity microplates were incubated at 25°C with 20 s shaking before hourly absorbance measurement for 48 h. For antifungal activity microplates were incubated at 22°C with 1 min shaking before absorbance measurement that were done every two hours during seven days. The experiment was repeated twice. The MIC was taken as the lowest compound concentration with no growth at the end of the experiment.

[2] = system: Fusarium oxysporum f. sp. lycopersici FOL 3 race 2; experiment: as above; details: Fo, 22°C, seven days, OD 600 nm, lowest concentration with no growth, given as interval of tested concentrations, three replicates, experiment repeated twice
Description: as §1, §2, §3

[3] = system: Xanthomonas axonopodis pv. vesicatoria 2133–2; experiment: MIC, growth inhibition in microtiter plates (TSB); details: Xav, 25°C, 48 h, OD 600 nm, lowest concentration with no growth, given as interval of tested concentrations, three replicates, experiment repeated twice
Description: (§4) The following plant pathogenic bacterial strains were used: Erwinia amylovora PMV6076 (Institut National de la Recherche Agronomique, Angers, France), Pseudomonas syringae pv. syringae EPS94 (Institut de Tecnologia Agroalimentària, Universitat de Girona, Spain), Xanthomonas axonopodis pv. vesicatoria 2133–2, Pseudomonas syringae pv. actinidiae Psa3700.1.1, Xanthomonas fragariae Xf349-9A (Instituto Valenciano de Investigaciones Agrarias, Valencia, Spain), and Xanthomonas arboricola pv. pruni CFBP5563 (Collection Française de Bactéries associées aux Plantes, Angers, France). All bacteria except for X. fragariae were stored in Luria Bertani (LB) broth supplemented with glycerol (20%) and maintained at -80°C. For X. fragariae, Medium B [46] was used instead of LB. E. amylovora, X. arboricola pv. pruni, P. syringae pv. syringae and P. syringae pv. actinidiae were scrapped from the agar media after growing for 24 h at 25°C, and X. axonopodis pv. vesicatoria and X. fragariae after growing for 48 h at 25°C. The cell material was suspended in sterile water to obtain a suspension of 10^8 CFU mL^-1.
as §2, §3

[4] = system: Pseudomonas syringae pv. actinidiae Psa3700.1.1; experiment: MIC, growth inhibition in microtiter plates (TSB); details: Psa, 25°C, 48 h, OD 600 nm, lowest concentration with no growth, given as interval of tested concentrations, three replicates, experiment repeated twice
Description: as §4, §2, §3

[5] = system: Xanthomonas fragariae Xf349-9A; experiment: MIC, growth inhibition in microtiter plates (TSB); details: Xf, 25°C, 48 h, OD 600 nm, lowest concentration with no growth, given as interval of tested concentrations, three replicates, experiment repeated twice
Description: as §4, §2, §3

[6] = system: Xanthomonas arboricola pv. pruni CFBP5563; experiment: MIC, growth inhibition in microtiter plates (TSB); details: Xap, 25°C, 48 h, OD 600 nm, lowest concentration with no growth, given as interval of tested concentrations, three replicates, experiment repeated twice
Description: as §4, §2, §3

[7] = system: Erwinia amylovora PMV6076; experiment: MIC, growth inhibition in microtiter plates (TSB); details: Ea, 25°C, 48 h, OD 600 nm, lowest concentration with no growth, given as interval of tested concentrations, three replicates, experiment repeated twice
Description: as §4, §2, §3

[8] = system: Pseudomonas syringae pv. syringae EPS94; experiment: MIC, growth inhibition in microtiter plates (TSB); details: Pss, 25°C, 48 h, OD 600 nm, lowest concentration with no growth, given as interval of tested concentrations, three replicates, experiment repeated twice
Description: as §4, §2, §3

Structure (SMILES) | MIC [1] [µM] | MIC [2] [µM] | MIC [3] [µM] | MIC [4] [µM] | MIC [5] [µM] | MIC [6] [µM] | MIC [7] [µM] | MIC [8] [µM]
CCCCCC(=O)NCCCC[C@H](NC(=O)[C@H](CCCCN)NC(=O)[C@H](CC(C)C)NC(=O)[C@@H](NC(=O)[C@H](CCCCN)NC(=O)[C@H](CCCCN)NC(=O)[C@H](Cc1ccccc1)NC(=O)[C@H](CC(C)C)NC(=O)[C@H](CCCCN)NC(=O)[C@H](CCCCN)NC(C)=O)[C@@H](C)CC)C(=O)N[C@@H](CC(C)C)C(N)=O [BP377, Ac-KKLFKKILKK(COC5H11)L-NH2] | 3.1 to 6.2 | 0.8 to 1.6 | 6.2 to 12.5 | 3.1 to 6.2 | 3.1 to 6.2 | 3.1 to 6.2 | 3.1 to 6.2 | 3.1 to 6.2
CCCCCCCCCCCC(=O)NCCCC[C@H](NC(=O)[C@H](CCCCN)NC(=O)[C@H](CCCCN)NC(C)=O)C(=O)N[C@@H](Cc1ccccc1)C(=O)N[C@@H](CCCCN)C(=O)N[C@@H](CCCCN)C(=O)N[C@H](C(=O)N[C@@H](CC(C)C)C(=O)N[C@@H](CCCCN)C(=O)N[C@@H](Cc1ccc(O)cc1)C(=O)N[C@@H](CC(C)C)C(N)=O)[C@@H](C)CC [BP394, Ac-KKK(COC11H23)FKKILKYL-NH2] | 12.5 to 25 | 6.2 to 12.5 | 1.6 to 3.1 | 6.2 to 12.5 | 0.8 to 1.6 | 1.6 to 3.1 | 12.5 to 25 | 6.2 to 12.5
CCCC(=O)NCCCC[C@H](NC(=O)[C@H](CC(C)C)NC(=O)[C@H](CCCCN)NC(=O)[C@H](CCCCN)NC(C)=O)C(=O)N[C@@H](CCCCN)C(=O)N[C@@H](CCCCN)C(=O)N[C@H](C(=O)N[C@@H](CC(C)C)C(=O)N[C@@H](CCCCN)C(=O)N[C@@H](Cc1ccc(O)cc1)C(=O)N[C@@H](CC(C)C)C(N)=O)[C@@H](C)CC [BP383, Ac-KKLK(COC3H7)KKILKYL-NH2] | 6.2 to 12.5 | 0.8 to 1.6 | 3.1 to 6.2 | 6.2 to 12.5 | 3.1 to 6.2 | 6.2 to 12.5 | 6.2 to 12.5 | 6.2 to 12.5
CCCC(=O)N[C@@H](CCCCN)C(=O)N[C@@H](CCCCN)C(=O)N[C@@H](CC(C)C)C(=O)N[C@@H](Cc1ccccc1)C(=O)N[C@@H](CCCCN)C(=O)N[C@@H](CCCCN)C(=O)N[C@H](C(=O)N[C@@H](CC(C)C)C(=O)N[C@@H](CCCCN)C(=O)N[C@@H](Cc1ccc(O)cc1)C(=O)N[C@@H](CC(C)C)C(N)=O)[C@@H](C)CC [BP379, C3H7CO-KKLFKKILKYL-NH2] | 6.2 to 12.5 | 3.1 to 6.2 | 3.1 to 6.2 | 3.1 to 6.2 | 3.1 to 6.2 | 3.1 to 6.2 | 3.1 to 6.2 | 3.1 to 6.2
CCCCCCCCCCCC(=O)NCCCC[C@H](NC(=O)[C@@H](NC(=O)[C@H](CCCCN)NC(=O)[C@H](CCCCN)NC(=O)[C@H](Cc1ccccc1)NC(=O)[C@H](CC(C)C)NC(=O)[C@H](CCCCN)NC(=O)[C@H](CCCCN)NC(C)=O)[C@@H](C)CC)C(=O)N[C@@H](CCCCN)C(=O)N[C@@H](Cc1ccc(O)cc1)C(=O)N[C@@H](CC(C)C)C(N)=O [BP399, Ac-KKLFKKIK(COC11H23)KYL-NH2] | 12.5 to 25 | 6.2 to 12.5 | 0.8 to 1.6 | 3.1 to 6.2 | 3.1 to 6.2 | 1.6 to 3.1 | >25 | 3.1 to 6.2
CCCCCCCCCCCC(=O)N[C@@H](CCCCN)C(=O)N[C@@H](CCCCN)C(=O)N[C@@H](CC(C)C)C(=O)N[C@@H](Cc1ccccc1)C(=O)N[C@@H](CCCCN)C(=O)N[C@@H](CCCCN)C(=O)N[C@H](C(=O)N[C@@H](CC(C)C)C(=O)N[C@@H](CCCCN)C(=O)N[C@@H](Cc1ccc(O)cc1)C(=O)N[C@@H](CC(C)C)C(N)=O)[C@@H](C)CC [BP391, C11H23CO-KKLFKKILKYL-NH2] | >25 | 12.5 to 25 | 6.2 to 12.5 | >25 | 3.1 to 6.2 | 6.2 to 12.5 | >25 | >25
CCCCCC(=O)NCCCC[C@H](NC(C)=O)C(=O)N[C@@H](CCCCN)C(=O)N[C@@H](CC(C)C)C(=O)N[C@@H](Cc1ccccc1)C(=O)N[C@@H](CCCCN)C(=O)N[C@@H](CCCCN)C(=O)N[C@H](C(=O)N[C@@H](CC(C)C)C(=O)N[C@@H](CCCCN)C(=O)N[C@@H](Cc1ccc(O)cc1)C(=O)N[C@@H](CC(C)C)C(N)=O)[C@@H](C)CC [BP368, Ac-K(COC5H11)KLFKKILKYL-NH2] | 1.6 to 3.1 | 0.8 to 1.6 | 3.1 to 6.2 | 6.2 to 12.5 | 6.2 to 12.5 | 3.1 to 6.2 | 6.2 to 12.5 | 6.2 to 12.5
CCCCCCCCCCCC(=O)NCCCC[C@H](NC(=O)[C@H](Cc1ccccc1)NC(=O)[C@H](CC(C)C)NC(=O)[C@H](CCCCN)NC(=O)[C@H](CCCCN)NC(C)=O)C(=O)N[C@@H](CCCCN)C(=O)N[C@H](C(=O)N[C@@H](CC(C)C)C(=O)N[C@@H](CCCCN)C(=O)N[C@@H](Cc1ccc(O)cc1)C(=O)N[C@@H](CC(C)C)C(N)=O)[C@@H](C)CC [BP396, Ac-KKLFK(COC11H23)KILKYL-NH2] | 12.5 to 25 | 6.2 to 12.5 | 3.1 to 6.2 | >25 | 1.6 to 3.1 | 1.6 to 3.1 | >25 | >25
CCCCCCCCCCCC(=O)NCCCC[C@H](NC(=O)[C@H](CC(C)C)NC(=O)[C@H](CCCCN)NC(=O)[C@H](CCCCN)NC(C)=O)C(=O)N[C@@H](CCCCN)C(=O)N[C@@H](CCCCN)C(=O)N[C@H](C(=O)N[C@@H](CC(C)C)C(=O)N[C@@H](CCCCN)C(=O)N[C@@H](Cc1ccc(O)cc1)C(=O)N[C@@H](CC(C)C)C(N)=O)[C@@H](C)CC [BP395, Ac-KKLK(COC11H23)KKILKYL-NH2] | 12.5 to 25 | 6.2 to 12.5 | 1.6 to 3.1 | 3.1 to 6.2 | 1.6 to 3.1 | 1.6 to 3.1 | 12.5 to 25 | 3.1 to 6.2
CCCCCCCCCCCC(=O)NCCCC[C@H](NC(C)=O)C(=O)N[C@@H](CCCCN)C(=O)N[C@@H](CC(C)C)C(=O)N[C@@H](Cc1ccccc1)C(=O)N[C@@H](CCCCN)C(=O)N[C@@H](CCCCN)C(=O)N[C@H](C(=O)N[C@@H](CC(C)C)C(=O)N[C@@H](CCCCN)C(=O)N[C@@H](Cc1ccc(O)cc1)C(=O)N[C@@H](CC(C)C)C(N)=O)[C@@H](C)CC [BP392, Ac-K(COC11H23)KLFKKILKYL-NH2] | >25 | 6.2 to 12.5 | 3.1 to 6.2 | >25 | 0.8 to 1.6 | 3.1 to 6.2 | >25 | >25
